The test system of data set [1] is HCT-116 cells. Briefly: MTT antiproliferative assay, HCT-116. In kind it is cell-based, human. The procedure, abridged: (§1)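 Cells seeded at 9 × 10^3 per well, allowed 24 h to adhere, then exposed 48 h to compound at 1, 10, 50 and 100 µM. MTT added to 2 mg/mL for 4 h, formazan dissolved in DMSO, OD read at 492 nm; inhibition calculated relative to untreated and blank wells.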
(Tetrazolium dyes change colour on reduction, which living cells bring about.)

Data set [2] can be described thus: MTT antiproliferative assay, HCT-116. It counts as cell-based, human. Conditions: human, HCT-116 colorectal cancer cells versus normal L02 cells; HCT-116 vs L02. The procedure, abridged:
as §1

The subject of the next data set is Cyclin B1. The data set can be described thus: Western blot, cyclin B1 in HCT-116 cells. In kind it is cell-based, human. The settings on record: HCT-116, 5, 10 and 15 μM, 24 h, concentration-dependent. The procedure:
(§2) HCT-116 cells were cultured with different concentrations of compound 5d for 24 h. Then, the floating cells was collected and washed two times with ice cold PBS. The pellet was resuspended in lysis buffer. After the cells were lysed on ice for 20 min, lysates were centrifuged at 12,000 rpm at 4 °C for 15 min. The protein concentration in the supernatant was determined using BCA protein assay reagents. Equal amounts of protein (50 μg) were resolved using sodium dodecyl sulphate-polyacrylamide gel electrophoresis (SDS-PAGE) (8−12% acrylamide gels) and transferred to a PVDF Hybond-P membrane. Membranes were blocked with PBS containing 5% non-fat milk for 1 h at room temperature. Membranes were then incubated with primary antibodies against Cyclin A (ENT1167, Elabscience, Wuhan, China), Cyclin E1 (ENT1176, Elabscience, Wuhan, China), Cyclin B1 (ENT1169, Elabscience, Wuhan, China) and β-actin (ENM0028, Elabscience, Wuhan, China), with gentle rotation overnight at 4 °C. Membranes were next incubated with fluorescent secondary antibodies for 2 h. Proteins were detected by electrochemiluminescence (Bio-Rad, Hercules, CA, USA).
For orientation: Immunoblotting shows a protein as a band on a membrane.

The subject of the next data set is HepG2 cells. Briefly: MTT antiproliferative assay, HepG2. It counts as cell-based, human. The procedure, abridged: as §1
Data set [3] is described as follows: MTT antiproliferative assay, HepG2. In kind it is cell-based, human. Conditions: human, HepG2 liver cancer cells versus normal L02 cells; HepG2 vs L02. The procedure, abridged:
as §1

In data set [4] the test system is HCT-116 cells. The data set can be described thus: Apoptosis by annexin V-FITC/propidium iodide flow cytometry. It counts as cell-based, human. The settings on record: 24 h; for percentage of total apoptotic cells (UR + LR): control 5.98%. The method, then: Apoptosis was detected using an Apoptosis Detection Kit (Invitrogen, Eugene, OR, USA). In brief, cells were cultured in 6-well plates (5.0 × 10^5 cells per well) and incubated at 37 °C for 24 h. Cells with exponential growth were then incubated with compound 5d at 5 and 15 µM. Following 24 h of incubation, the cells were collected, washed twice with PBS and once with 1 × binding buffer and then stained with […] of annexin V-FITC and […] of PI 5mg/mL in 1 × binding buffer for 30 min at room temperature in the dark. Apoptotic cells were enumerated using a FACSCalibur flow cytometer with Cell Quest software (Becton–Dickinson, Franklin Lakes, NJ, USA).
(In flow cytometry, cells or beads pass a laser one at a time.)

The next data set has as its system Cyclin A. The data set can be described thus: Western blot, cyclin A in HCT-116 cells. It counts as cell-based, human. Conditions: HCT-116, 5, 10 and 15 μM, 24 h, concentration-dependent. The method, then:
as §2

The test system of the next data set is L02 cells. The data set can be described thus: MTT assay on normal liver cells L02. It counts as cell-based. Conditions: Homo sapiens.
[5] abbreviates: IC50 on normal cells (L02)/IC50 on cancer cells.

Like-named read-outs stand apart in the source and are kept apart here.

The source of these data is PMC6337650 (Molecules, 2018).

By inhibition is commonly meant the percentage by which the read-out fell short of the control. A word on the IC50: it is the midpoint of a concentration-inhibition curve.

For `Cc1ccc(-n2cc(CNC(=O)COC(=O)[C@]3(C)CCC[C@@]4(C)[C@@H]5CC[C@@]6(C)C[C@]5(CC[C@@H]43)CC6=O)nn2)cc1` [Compound 5d, 2-oxo-2-(((1-(p-tolyl)-1H-1,2,3-triazol-4-yl)methyl)amino)ethyl(4R,4aS,6aR,9S,11aR,11bS)-4,9,11b-trimethyl-8-oxotetradecahydro-6a,9-methanocyclohepta[a]naphthalene-4-carboxylate], the inhibition at 100 µM was found to be 84.6 ± 0.96% in the data set with HCT-116 cells [1] (Homo sapiens, HCT-116, 100 μM, 48 h, MTT, mean ± SD, n=3, read-out: % Growth Inhibition at 100 μM HCT-116) and 82.8 ± 0.86% in the data set with HepG2 cells (Homo sapiens, HepG2, 100 μM, 48 h, MTT, mean ± SD, n=3, read-out: % Growth Inhibition at 100 μM HepG2). Further, the IC50 in the data set on HCT-116 cells [1] (Homo sapiens, HCT-116, 48 h, MTT, mean ± SD, n=3) was 5.38 ± 0.26 µM; in the data set with HepG2 cells (Homo sapiens, HepG2, 48 h, MTT, mean ± SD, n=3), 8.92 ± 0.44 µM; with L02 cells (normal cell line, Table 3, read-out: (IC50, μM) L02) it was 161 ± 1.96 µM; in the data set with L02 cells (normal liver cells, 48 h, MTT, Table 2, read-out: IC50 Values (μM) L02), over 100 µM. In addition, in the data set with HCT-116 cells [1] (setting [5]), the “Selectivity Index HCT-116” value is 29.93. Moreover, the entries for the “fold more active than 5-FU” value in the data set on HCT-116 cells [1] (against HCT-116 cells) and in the data set with HepG2 cells (against HepG2 cells) were 4.6 fold and 2.6 fold, respectively. Also, the selectivity ratio at 48 h was found to be 38.2 in data set [2] and 22 in data set [3]. Moreover, the “cyclin B1 protein level” value in the data set on Cyclin B1 is “increasing”. The “Selectivity Index HepG2” value in the data set with HepG2 cells (setting [5]) came out at 18.05. Also, the “percentage of total apoptotic cells (UR + LR)” value in the data set with HCT-116 cells [4] (5 μM) came to 7.67%; with HCT-116 cells [4] (15 μM) it was 24.94%. Moreover, the “dead cells (UL)” value in the data set with HCT-116 cells [4] (15 μM, control 8.84%) is 49.22%. The “cyclin A protein level” value in the data set on Cyclin A is reported as “decreased”.
